Laboratory results: US6184374A, “Targeted cytotoxic anthracycline analogs” (priority 1998, dated 2001)
Like-named read-outs stand apart in the source and are kept apart here. Where a SMILES comes first, the peptide text is derived from it. Bridges are numbered along the chain shown (N, C = ends). [ ]: non-standard residue; d: D form.

Columns and labels:
[1] = test system: MCF-7 human mammary carcinoma cell line; assay type: cell-based
Source text: (§1) MXT estrogen-independen mouse mammary carcinoma cell line was obtained from Dr. Gunter Berndhart, University of Regensburg, Germany. All the other cell lines used in the determination of the antiproliferative activity of the compounds of this invention were obtained from the American Type Culture Collection (ATCC).
(§2) For the evaluation of the activity of the analogs, a colorimetric cytotoxicity assay in microtitration plates was used based on quantification of biomass by staining cells with crystal violet, which correlates very well with determination of cell numbers. (Reile et al.; Anal. Biochem. 187, 262-267, 1990; Bernhardt G. et al, J. Cancer Res. Clin. Oncol. (1992), 118, 35-43; Spruss Th. et al, J. Cancer Res. Clin. Oncol 117, 435-443, 1991; Gillies, R. J., Anal. Biochem. 159, 109-113, 1986; Kueng, W. et al.; Anal. Biochem., 182 16-19, 1989.)
(§3) One to two days after seeding cells in 96-well plates the culture medium is exchanged with fresh medium containing the compounds to be tested and fresh medium only for the control cultures. After varying time of incubation, cells are fixed with glutaric dialdehyde and stored under […] at 4° C. until the end of the experiment. Cells are stained with crystal violet and bound stain is extracted with 70% aqueous EtOH. Optical density is measured with EIA Reader (Bio-Tek Instruments) or Biomek 1000 (Beckman) at 590 nm or 600 nm, respectively. Each data point represents the mean value of eight culture wells. T/C values are calculated as T/C=(T-C0)/(C-C0) where T=optical density of treated cultures, C=optical density of control (untreated) cultures, C0 =optical density of cultures at the start of incubation (t=0).
Cells were incubated in IMEM media containing 5% Hl:DCC-FBS (heat inactivated dextran coated charcoal treated fetal bovine serum) on 96 well plates. Relative cell number in treated and control plates was determined by the crystal violet staining method and was expressed as T/C values where T/C=T-C0 /C-C0×100 [T=absorbance of treated cultures, C= absorbance of control cultures, C0 =absorbance of cultures at the start of incubation (t=0). The measured absorbance is proportionate to the cell number.]

[2] = test system: estrogen independent MXT mouse mammary cancers; assay: Effect of cytotoxic LH-RH analogs on estrogen independent MXT mouse mammary cancers (KS-47); assay type: in vivo
Protocol: MXT (3.2) ovex tumor pieces (1 mm^3) were transplanted in female B6 D2 F1 mice. The treatment started one day after transplantation and was continued for 12 days by i.p. injections once a day. Tumors were measured on days 10, 14 and 18, and tumor volume was calculated.

[3] = test system: estrogen independent MXT mouse mammary cancers; assay: Earlier experiment with Q2 daily dosing (tumor growth, survival)
[4] = test system: growth hormone release from superfused rat pituitary cells; assay: Inhibition of hGH-RH(1-29)NH2 induced GH release, rat pituitary superfusion system; assay type: cell-based
Protocol: Accordingly, this method was used to compare the cytotoxic somatostatin analogs of the present invention to their parent carrier molecules with respect to their hormonal activities.
In rat pituitary superfusion system, the somatostatin analogs were administered for 3 min at 1 nM dose simultaneously with 1 nM hGH-RH(1-29)NH2. The infusion of the somatostatin analogs was maintained for another 6 min. GH responses to 3 min administration of 1 nM hGH-RH(1-29)NH2 were determined during the perfusion of the somatostatin analogs (0 min) and 30, 60 and 90 min after the administration stopped.

[5] = test system: MIIA PaCa-2 Human Pancreatic Cancer Cell Line; assay: Growth of MIIA PaCa-2 cells in vitro (crystal violet T/C); assay type: cell-based
Source text: as §2, §3
Cells were incubated in RPMI 1640 media containing 10% fetal bovine serum on 96 well plates. [drawing 8]

[6] = test system: estrogen independent MXT mouse mammary cancers; assay: Single treatment of estrogen independent MXT mouse mammary cancers (KS-55); assay type: in vivo
Protocol: In order to determine the maximum tolerated doses and compare the effects, MXT (3.2) ovex tumor pieces (1 mm^3) were implanted s.c. in female B6 D2 F1 mice. One day after transplantation the mice were randomly divided into groups of five animals and they were treated with a single injection i.p. The groups and doses are shown in the Table 25-1. […] The compounds were dissolved in 0.1% TFA (pH: 2.0). Tumor volume was measured on days 10, 13, 17, and 20.

[7] = test system: CFPAC-1 Human Pancreatic Cancer Cell; assay: Growth of CFPAC-1 cells in vitro (crystal violet T/C); assay type: cell-based
Source text: as §2, §3

[8] = test system: estrogen independent MXT mouse mammary cancers; assay: Treatment of estrogen independent MXT mouse mammary cancers (KS-49); assay type: in vivo; details: for Average survival: 520 nmol/inj. i.p., 3 weeks, total 1560 nmol (Group 13)
Source text: In order to compare the tumor inhibitory activity of cytotoxic doxorubicin derivative, Q6 and its targeted cytotoxic peptide conjugate, Q6^14 gL as well as the well known antineoplastic agent, DOX and to determine the optimal way of administration and the nontoxic doses, LH-RH receptor positive MXT (3.2) ovex tumor pieces (1 mm^3) were implanted s. c. in female B6 D2 F1 mice. One day after transplantation the mice were randomly divided into groups of five animals and the treatment started. The compounds were dissolved in 0.1% trifluoroacetic acid (pH 2) and given intraperitoneally.

[9] = test system: MXT estrogen independent mouse mammary carcinoma cell line; assay: In vitro cytotoxic activity, crystal violet colorimetric assay on MXT; assay type: cell-based
Source text: as §1, §2, §3

[10] = Table 17-1, 10^-8 M; incubation 70 hr
[11] = Table 17-1, 10^-8 M; incubation 120 hr
[12] = Table 17-1; 3 × 10^-8 M; incubation 70 hr
[13] = Table 17-1; 3 × 10^-8 M; incubation 120 hr
[14] = Table 17-1; 10^-8 M; incubation 70 hr
[15] = Table 17-1; 10^-8 M; incubation 120 hr
[16] = daily dose of 30 nmol (equimolar) i.p. for 12 days
[17] = 0 min (during perfusion of 1 nM somatostatin analog), percentage of GH release before analog
[18] = 30 min after infusion of 1 nM somatostatin analog
[19] = 60 min after infusion of 1 nM somatostatin analog
[20] = single i.p. injection 650 nmol/20 g
[21] = single i.p. injection 700 nmol/20 g
[22] = single i.p. injection 750 nmol/20 g

For `COc1cccc2c1C(=O)c1c(O)c3c(c(O)c1C2=O)C[C@@](O)(C(=O)CO)C[C@@H]3O[C@H]1C[C@H](N2CCCC2)[C@H](O)[C@H](C)O1.O=C(O)C(F)(F)F` [Compound Q2, 3'-deamino-3'-(pyrrolidine-1"-yl)doxorubicin], the “T/C Value” [1, 10] was -26, the “T/C Value” [1, 11] was -19 and the “T/C Value” [1, 12] was 25. The “T/C Value” [1, 13] was 17, the “T/C Value” [1, 14] was 97 and the “T/C Value” [1, 15] was 94. The “Effect on tumor growth” value [2, 16] was “strong inhibitory effect on tumor growth”, the “Mean survival after transplantation” value [2, 16] was 17.9 days and the “Mean tumor volume on day 10” value [2, 16] was 153 mm^3. For the same compound, the “Mean tumor volume on day 14” value [2, 16] was 144 mm^3, the “Mean tumor volume on day 18” value [2, 16] was 137 mm^3 and the Toxicity ([2]; daily dose of 30 nmol i.p. for 12 days) was “severe toxicity”. The “Effect on tumor growth” value ([3]; 20 nmol daily dose for 17 days) was “only a moderate inhibitory effect on tumor growth”, the Mean survival ([3]; 40 nmol dose) was 14.6 days and the Toxicity ([3]; 40 nmol dose) was “toxic”.
`C[C@@H](O)[C@H](NC(=O)[C@@H]1CSSC[C@H](NC(=O)[C@H](N)Cc2c[nH]c3ccccc23)C(=O)N[C@@H](Cc2ccccc2)C(=O)N[C@H](Cc2c[nH]c3ccccc23)C(=O)N[C@@H](CCCCN)C(=O)N[C@@H]([C@@H](C)O)C(=O)N1)C(N)=O` [Compound S-98] (H-[dW]CF[dW]KTCT-NH2; disulfide 2-7) was tested, and the “GH release induced by 3 min administration of 1 nM hGH-RH(1-29)NH2” value (“GH release induced” below) [4, 17] was 2.9%, the “GH release induced” value [4, 18] was 94.7% and the “GH release induced” value [4, 19] was 117.6%. For the same compound, the “T/C Value” ([5]; 10^-6 M, incubation 28 h) was 96 and the “T/C Value” ([5]; 10^-6 M, incubation 76 h) was 98.
With `CC(C)[C@@H]1NC(=O)[C@H](CCCCN)NC(=O)[C@@H](Cc2c[nH]c3ccccc23)NC(=O)[C@H](Cc2ccc(O)cc2)NC(=O)[C@@H](NC(=O)[C@H](N)Cc2ccccc2)CSSC[C@@H](C(=O)N[C@H](C(N)=O)[C@@H](C)O)NC1=O` [Compound S-121] the “GH release induced” value [4, 17] was 0%, the “GH release induced” value [4, 18] was 90% and the “GH release induced” value [4, 19] was 89.7%. The “T/C Value” ([5]; 10^-6 M, incubation 28 h) was 76 and the “T/C Value” ([5]; 10^-6 M, incubation 76 h) was 96.
`COc1cccc2c1C(=O)c1c(O)c3c(c(O)c1C2=O)C[C@@](O)(C(=O)CO)C[C@@H]3O[C@H]1C[C@H](N)[C@H](O)[C@H](C)O1` [Doxorubicin, doxorubicin] was tested, and the “T/C Value” [1, 10] was 54, the “T/C Value” [1, 11] was 33 and the “T/C Value” [1, 12] was 82. The “T/C Value” [1, 13] was 66, the “T/C Value” [1, 14] was 98 and the “T/C Value” [1, 15] was 95. For the same compound, the “T/C Value on MCF-7 Cell Line” value ([1]; Table 18-1; 3 × 10^-8 M; 70 hr) was 82, the “T/C Value on MCF-7 Cell Line” value ([1]; Table 18-1; 3 × 10^-8 M; 120 hr) was 66 and the “T/C Value on MCF-7 Cell Line” value ([1]; Table 18-1; 10^-7 M; 70 hr) was 54. The “T/C Value on MCF-7 Cell Line” value ([1]; Table 18-1; 10^-7 M; 120 hr) was 33, the “T/C Value on MCF-7 Cell Line” value ([1]; Table 18-1; 10^-8 M; 70 hr) was 98 and the “T/C Value on MCF-7 Cell Line” value ([1]; Table 18-1; 10^-8 M; 120 hr) was 95. The “Suppression of tumor growth” value ([6]; dose of 650 nmol/20 g mouse (as printed in text)) was “significantly less effective”, the Toxicity ([6]; single dose of 650 nmol/20 g mouse (as printed in text)) was “highly toxic” and the Average survival [6, 20] was 13.6 days. The “Number of tumorous mice/number of surviving mice Day 10” value [6, 20] was 3/3, the “Number of tumorous mice/number of surviving mice Day 13” value [6, 20] was 2/2 and the “Number of tumorous mice/number of surviving mice Day 17” value [6, 20] was 1/1. For the same compound, the “Number of tumorous mice/number of surviving mice Day 20” value [6, 20] was 1/1, the Average survival [6, 21] was 15.2 days and the “Number of tumorous mice/number of surviving mice Day 10” value [6, 21] was 2/3. The “Number of tumorous mice/number of surviving mice Day 13” value [6, 21] was 2/3, the “Number of tumorous mice/number of surviving mice Day 17” value [6, 21] was 2/2 and the Average survival [6, 22] was 7.8 days. The “Number of tumorous mice/number of surviving mice Day 10” value [6, 22] was 1/1, the “T/C Value” ([5]; 10^-6 M, incubation 28 h) was -28 and the “T/C Value” ([5]; 10^-6 M, incubation 76 h) was -7. The “T/C Value” ([5]; 10^-7 M, incubation 28 h) was 64, the “T/C Value” ([5]; 10^-7 M, incubation 76 h) was 10 and the “T/C Value” ([5]; 10^-8 M, incubation 28 h) was 95. The “T/C Value” ([5]; 10^-8 M, incubation 76 h) was 71, the “T/C Value” ([7]; 3 × 10^-7 M, incubation 66 h) was 15 and the “T/C Value” ([7]; 3 × 10^-7 M, incubation 95 h) was 10. The “T/C Value” ([7]; 3 × 10^-7 M, incubation 137 h) was 7, the “T/C Value” ([7]; 3 × 10^-8 M, incubation 66 h) was 88 and the “T/C Value” ([7]; 3 × 10^-8 M, incubation 95 h) was 73. For the same compound, the “T/C Value” ([7]; 3 × 10^-8 M, incubation 137 h) was 49, the “T/C Value” ([7]; 10^-6 M, incubation 66 h) was -7 and the “T/C Value” ([7]; 10^-6 M, incubation 95 h) was -6. For the same compound, the “T/C Value” ([7]; 10^-6 M, incubation 137 h) was -4, the “T/C Value” ([7]; 10^-7 M, incubation 66 h) was 52 and the “T/C Value” ([7]; 10^-7 M, incubation 95 h) was 32. The “T/C Value” ([7]; 10^-7 M, incubation 137 h) was 20, the Average survival [8] was 20 days and the Average survival ([8]; listed as DOX) was 20.0 days. For the same compound, the “Eradication of the tumor” value ([8]; toxic dose, total amount 1560 nmol) was “could not eradicate the tumor”, the “T/C value on MXT cell line” value ([9]; 3 × 10^-8 M, 26 hr) was 90 and the “T/C value on MXT cell line” value ([9]; 3 × 10^-8 M, 50 hr) was 60. For the same compound, the “T/C value on MXT cell line” value ([9]; 10^-7 M, 26 hr) was 59, the “T/C value on MXT cell line” value ([9]; 10^-7 M, 50 hr) was 43 and the “T/C value on MXT cell line” value ([9]; 10^-8 M, 26 hr) was 85. For the same compound, the “T/C value on MXT cell line” value ([9]; 10^-8 M, 50 hr) was 74.
